{"source": "patent US4102887A", "about": "“Intermediates used in the preparation of phenyl-pyridylamine derivatives” (priority 1974, dated 1978)", "key": {"[1]": {"conditions": "literature / prior patents; cited from earlier work"}, "[2]": {"system": "neuronal uptake of noradrenaline", "experiment": "Inhibition of uptake of 3H-NA in vitro in slices of mouse midbrain", "type": "cell-based", "conditions": "in words; in vitro or in vivo not stated", "method": "(§1) It is not possible by experimental means to induce depressions in laboratory animals. In order to evaluate a possible anti-depressive effect of new substances biochemicalpharmacological test methods must be resorted to. One such method, which seems to give a good indication of the potential anti-depressive effects of the test substances, is described in Europ.\n(§2) The test substances were administered intraperitoneally half an hour before the animals were killed. […] The incubation time was 5 minutes with 5 minutes of preincubation before the labelled amines were added. The slices were dissolved in Soluene® and the amounts of radio-active amines taken up were determined by liquid scintillation. […] Active uptake is defined as that part of the radioactive uptake which is inhibited by a high concentration of cocaine.\n(§3) In the in vitro method, slices of mouse midbrain were preincubated for 5 minutes with a solution of the compound to be tested and then incubated as described above."}, "[3]": {"system": "neuronal uptake of noradrenaline", "experiment": "Inhibition of uptake of 3H-NA in brain slices after in vivo (i.p.) administration", "set-up": "species or system mouse", "method": "as §1, §2"}, "[4]": {"system": "neuronal uptake of 5-hydroxytryptamine", "experiment": "Inhibition of uptake of 14C-5-HT in vitro in slices of mouse midbrain", "type": "cell-based", "method": "as §1, §2, §3"}, "[5]": {"system": "neuronal uptake of 5-hydroxytryptamine", "experiment": "Inhibition of uptake of 14C-5-HT in brain slices after in vivo (i.p.) administration", "set-up": "species or system mouse", "conditions": "in words", "method": "as §1, §2"}, "[6]": {"conditions": "cited from earlier work"}}, "note": "Counter-ions that a name gives are not always drawn. Like-named read-outs stand apart in the source and are kept apart here."}
{"smiles": "CN(C)CC=C(c1ccccc1)c1ccccc1", "values": [{"measurement": "antidepressive effect", "setting": "[1]", "result": "have an antidepressive effect"}]}
{"smiles": "CNC/C=C(\\c1ccc(Br)cc1)c1cccnc1", "note": "[E-form of the compound of the invention, (E)-3-(4-bromophenyl)-3-(3-pyridyl)-N-methyl-allylamine]", "values": [{"measurement": "preferential inhibition of noradrenaline uptake", "setting": "[2]", "result": "primarily inhibits the uptake of noradrenaline"}]}
{"smiles": "CNC/C=C(/c1ccc(Br)cc1)c1cccnc1", "note": "[H Z hydrochloride, (Z)-3-(4-bromophenyl)-3-(3-pyridyl)-N-methyl-allylamine]", "values": [{"measurement": "inhibition at 101 µmol/kg", "setting": "[3]; Mus musculus, ip, at the dose 101 μmole/kg i.p.", "result": 39, "unit": "%"}, {"measurement": "Uptake of 3H-NA in vivo ED50", "setting": "[3]; i.p., half an hour before killing, mouse midbrain slices, dose for 50 percent decrease of active uptake, 30 min", "result": "> 101", "unit": "µmol/kg"}]}
{"smiles": "CNC/C=C(/c1ccc(Br)cc1)c1cccnc1", "note": "[H Z oxalate, (Z)-3-(4-bromophenyl)-3-(3-pyridyl)-N-methyl-allylamine]", "values": [{"measurement": "ED50", "setting": "[3]; Mus musculus, ip, 0.5 h, i.p., half an hour before killing, mouse midbrain slices, dose for 50 percent decrease of active uptake", "result": 102, "unit": "µmol/kg"}]}
{"smiles": "CNCC=C(c1ccc(Br)cc1)c1cccnc1", "note": "[H mixture oxalate, N-methyl-3-(4-bromophenyl)-3-(3-pyridyl)allylamine oxalate]", "values": [{"measurement": "EC50", "setting": "[4]; Mus musculus, mouse midbrain slices, 5 min preincubation, 5 min incubation", "result": 500, "unit": "nM"}]}
{"smiles": "CNC/C=C(/c1ccc(Br)cc1)c1cccnc1", "note": "[Z-form of the compound of the invention, (Z)-3-(4-bromophenyl)-3-(3-pyridyl)-N-methyl-allylamine]", "values": [{"measurement": "inhibition of the uptake of 5-HT in vitro, compared with prior art compounds", "setting": "[4]; in words, tested as the hydrochloride", "result": "more potent inhibitor of the uptake of 5-HT in vitro than any of the prior art compounds"}, {"measurement": "inhibition of the uptake of 5-HT in vivo, compared with prior art compounds", "setting": "[5]", "result": "stronger inhibition of the uptake of 5-HT in vivo than do any of the prior art compounds tested"}]}
{"smiles": "CN(C)CCC=C1c2ccccc2CCc2ccccc21", "note": "[amitriptyline]", "values": [{"measurement": "side effects", "setting": "[6]; in vivo", "result": "orthostatism, anticholinergic effects and above all, an arrhythmogenic i.e. heart arrhythmia developing effect"}, {"measurement": "start of the antidepressive effect", "setting": "[6]; therapeutic use", "result": "does not start until some weeks after treatment"}]}
{"smiles": "CNCCCN1c2ccccc2CCc2ccccc21", "note": "[desipramine]", "values": [{"measurement": "side effects", "setting": "[6]; in vivo", "result": "orthostatism, anticholinergic effects and above all, an arrhythmogenic i.e. heart arrhythmia developing effect"}, {"measurement": "start of the antidepressive effect", "setting": "[6]; therapeutic use", "result": "does not start until some weeks after treatment"}]}
{"smiles": "CN(C)CCCN1c2ccccc2CCc2ccccc21", "note": "[imipramine]", "values": [{"measurement": "side effects", "setting": "[6]; in vivo", "result": "orthostatism, anticholinergic effects and above all, an arrhythmogenic i.e. heart arrhythmia developing effect"}, {"measurement": "start of the antidepressive effect", "setting": "[6]; therapeutic use", "result": "does not start until some weeks after treatment"}]}
{"smiles": "CNCCC=C1c2ccccc2CCc2ccccc21", "note": "[nortriptyline]", "values": [{"measurement": "side effects", "setting": "[6]; therapeutic use, arrhythmogenic in large doses to old patients", "result": "orthostatism, anticholinergic effects and above all, an arrhythmogenic i.e. heart arrhythmia developing effect"}, {"measurement": "start of the antidepressive effect", "setting": "[6]; therapeutic use", "result": "does not start until some weeks after treatment"}]}
